In paper PMC6017406, “Synthesis and Physicochemical Evaluation of Entecavir-Fatty Acid Conjugates in Reducing Food Effect on Intestinal Absorption” (Molecules : A Journal of Synthetic Chemistry and Natural …, 2018):
In brackets after ≈: the same amount, converted by molar mass. Read-outs that look alike come from different tables or passages of the source.

Assays:
[1] = Equilibrium solubility in biorelevant media; type: physicochemical; details: for solubility thermodynamic at 3 days: thermodynamic from solid, mean ± SD (n = 3)
Description: The equilibrium solubilities of lipidic prodrugs in biorelevant media such as FaSSGF, FeSSGF, FaSSIF, and FeSSIF [32, 33] were assessed. FaSSGF was prepared with 0.08 mM of sodium taurocholate, 0.02 mM of lecithin, and 34.2 mM of NaCl in 1000 mL of distilled water (pH 1.6). FaSSIF was prepared with 3 mM of sodium taurocholate, 0.2 mM of lecithin, 19.1 mM of malate, 68.62 mM of NaCl, and 34.8 mM of NaOH in 1000 mL of distilled water (pH 6.5, osmolality: 270 mOsm∙kg^−1). FeSSGF was prepared with 230.0 mM of NaCl, 17.1 mM of acetic acid, and 29.75 mM of sodium acetate, in 1000 mL of mixture of milk (full fat 3.5%) and distilled water (pH 5.0, osmolality: 400 mOsm∙kg^−1). FeSSIF was prepared with 10 mM of sodium taurocholate, 2 mM of lecithin, 5 mM of glyceryl monooleate, 0.8 mM of sodium oleate, 55.0 mM of malate, 125.5 mM of NaCl, and 81.6 mM of NaOH in 1000 mL of distilled water (pH 5.8, osmolality: 390 mOsm∙kg^−1).
An excess amount of drug (500 mg) was added to biorelevant media in a scintillation vial. Drug suspensions were sonicated for 30 min and then shaken at 37 °C for 3 days using a shaking incubator. Samples were then centrifuged at 13,000 rpm for 10 min and the supernatant was appropriately diluted with mobile phase. The concentration of EV-FA in the medium was analyzed using HPLC as described above.

[2] = parameters: method as in earlier work; details: oral 0.5 mg with high-fat meal (945 kcal, 54.6 g fat); cited from earlier work
[3] = In vitro dissolution test in biorelevant media (USP 29 paddle method); type: physicochemical
Description: The United States Pharmacopeia 29 paddle method was used to assess the release profile of EV-C12 powder using a VK 7000 dissolution tester (Varian Medical Industries, Palo Alto, CA, USA). The EV-FA powder equivalent to 0.5 mg of the parent compound was immersed in 900 mL of biorelevant media maintained at 37 °C ± 0.1 °C at a paddle speed of 50 rpm. At fixed time intervals, aliquots (about 4 mL) were drawn and centrifuged at 13,000 rpm for 10 min. An equal volume of the test medium pre-warmed at 37 °C ± 0.1 °C was used for immediate replacement. The supernatant was appropriately diluted with methanol and the drug concentration in the supernatant was assayed by HPLC, as described earlier.

[4] = parameters: method as in PMID 27503646; details: cited from earlier work
[5] = Hydrolysis in simulated gastric fluid (pH 1.2); type: physicochemical; details: simulated gastric fluid pH 1.2, 37 °C, after 12 h, 20 μg/mL
Description: To estimate the chemical stability of these synthesized ester prodrugs in the stomach, their hydrolysis behavior was evaluated in simulated gastric fluid (pH 1.2). Each compound (10 mg) was dissolved in ethanol (10 mL) and then serially diluted with simulated gastric fluid at a drug concentration of 20 μg/mL. […]

[6] = parameters: method as in PMID 14498759; details: humans; cited from earlier work
[7] = fassgf or other biorelevant, FaSSGF pH 1.6, 37 °C, read-out: Equilibrium solubility FaSSGF
[8] = fassgf or other biorelevant, FeSSGF pH 5.0, 37 °C, read-out: Equilibrium solubility FeSSGF
[9] = FaSSIF pH 6.5, 37 °C, read-out: Equilibrium solubility FaSSIF
[10] = FeSSIF pH 5.8, 37 °C, read-out: Equilibrium solubility FeSSIF
[11] = all biorelevant media, 37 °C, 50 rpm

Work on `C=C1[C@H](CO)[C@@H](O)C[C@@H]1n1cnc2c(=O)nc(N)[nH]c21` [EV, 2-amino-9-[(1S,3R,4S)-4-hydroxy-3-(hydroxymethyl)-2-methylidenecyclopentyl]-3H-purin-6-one, reference compound] yielded a solubility at 3 days ([1]; biorelevant media (FaSSGF, fassgf or other biorelevant, thermodynamic from solid), FaSSGF, FaSSIF, FeSSGF, FeSSIF, 37 °C, read-out: Aqueous solubility in all media tested) greater than 1600 µg/mL, a solubility thermodynamic at 3 days [1, 7] of 8940 ± 92 µg/mL (≈ 32200 µM) and a solubility thermodynamic at 3 days [1, 8] of 2152 ± 13 µg/mL (≈ 7760 µM). For the same compound, the solubility thermodynamic at 3 days [1, 9] was 1620 ± 23 µg/mL (≈ 5860 µM), the solubility thermodynamic at 3 days [1, 10] was 2240 ± 52 µg/mL (≈ 8080 µM) and the “Decrease in maximum drug concentration in plasma” value [2] was 44–46%. For the same compound, the “Time to complete release” value ([3]; all biorelevant media (FaSSGF, FaSSIF, FeSSGF, FeSSIF), 37 °C, 50 rpm) was no more than 15 min, the pKa [4] was 10.5 and the Solubility ([4]; distilled water at 25 °C) was 2400 µg/mL (≈ 8660 µM). The logP ([4]; pH 4 to 10) was −1.110.

With `C=C1[C@H](COC(=O)CCCCC)[C@@H](O)C[C@@H]1n1cnc2c(=O)[nH]c(N)nc21` [EV-C6, (1R,3S,5S)-3-(2-Amino-6-oxo-1H-purin-9(6H)-yl)-5-hydroxy-2-methylenecyclopentyl)methyl hexanoate] the Hydrolyzed percentage [5] was 59.1%, the solubility thermodynamic at 3 days [1, 7] was 4.84 ± 0.5 µg/mL (≈ 12.9 µM) and the solubility thermodynamic at 3 days [1, 8] was 24.9 ± 1.4 µg/mL (≈ 66.3 µM). The solubility thermodynamic at 3 days [1, 9] was 5.54 ± 0.6 µg/mL (≈ 14.8 µM) and the solubility thermodynamic at 3 days [1, 10] was 25.2 ± 2.3 µg/mL (≈ 67.1 µM).

With `C=C1[C@H](COC(=O)CCCCCCC)[C@@H](O)C[C@@H]1n1cnc2c(=O)[nH]c(N)nc21` [EV-C8, ((1R,3S,5S)-3-(2-Amino-6-oxo-1H-purin-9(6H)-yl)-5-hydroxy-2-methylenecyclopentyl)methyl octanoate] the Hydrolyzed percentage [5] was 46.2%, the solubility thermodynamic at 3 days [1, 7] was 4.74 ± 0.3 µg/mL (≈ 11.7 µM) and the solubility thermodynamic at 3 days [1, 8] was 38.2 ± 1.5 µg/mL (≈ 94.7 µM). For the same compound, the solubility thermodynamic at 3 days [1, 9] was 5.74 ± 0.3 µg/mL (≈ 14.2 µM) and the solubility thermodynamic at 3 days [1, 10] was 36.7 ± 1.2 µg/mL (≈ 91 µM).

`C=C1[C@H](COC(=O)CCCCCCCCC)[C@@H](O)C[C@@H]1n1cnc2c(=O)[nH]c(N)nc21` [EV-C10, ((1R,3S,5S)-3-(2-Amino-6-oxo-1H-purin-9(6H)-yl)-5-hydroxy-2-methylenecyclopentyl)methyl decanoate] showed a Hydrolyzed percentage [5] of 44.4%, a solubility thermodynamic at 3 days [1, 7] of 4.41 ± 0.1 µg/mL (≈ 10.2 µM) and a solubility thermodynamic at 3 days [1, 8] of 61.9 ± 3.2 µg/mL (≈ 143 µM). For the same compound, the solubility thermodynamic at 3 days [1, 9] was 6.47 ± 0.6 µg/mL (≈ 15 µM) and the solubility thermodynamic at 3 days [1, 10] was 66.6 ± 4.4 µg/mL (≈ 154 µM).

Compound `C=C1[C@H](COC(=O)CCCCCCCCCCC)[C@@H](O)C[C@@H]1n1cnc2c(=O)[nH]c(N)nc21` [EV-C12, ((1R,3S,5S)-3-(2-Amino-6-oxo-1H-purin-9(6H)-yl)-5-hydroxy-2-methylenecyclopentyl)methyl dodecanoate] has a Hydrolyzed percentage [5] of 22.5%, a solubility thermodynamic at 3 days [1, 7] of 4.82 ± 0.2 µg/mL (≈ 10.5 µM) and a solubility thermodynamic at 3 days [1, 8] of 76.6 ± 4 µg/mL (≈ 167 µM). The solubility thermodynamic at 3 days [1, 9] was 6.5 ± 0.2 µg/mL (≈ 14.1 µM), the solubility thermodynamic at 3 days [1, 10] was 78.8 ± 7.7 µg/mL (≈ 171 µM) and the “Percent released within 30 min” value [3, 11] was “more than 50%”. The “Percent released/dissolved within 2 h” value [3, 11] was “more than 90%”, the “Concentration of EV in dissolution medium formed by hydrolysis of the lipidic compound” value ([3]; all media) was “less than 1%” and the “Release rate constant (Hixon-Crowell cube-root model)” value (from here on “Release rate constant”) ([3]; fourth medium listed (presumably FeSSIF), r^2 = 0.933) was 0.053 mg^1/3/h. For the same compound, the “Release rate constant” value ([3]; second medium listed (presumably FaSSIF), r^2 = 0.914) was 0.036 mg^1/3/h and the “Release rate constant” value ([3]; third medium listed (presumably FeSSGF), r^2 = 0.879) was 0.048 mg^1/3/h.

For `CC(C)(C)C(=O)OCOP(=O)(COCCn1cnc2c(N)ncnc21)OCOC(=O)C(C)(C)C` [adefovir dipivoxil], the Oral bioavailability [6] is given as 59%.

In the case of `Nc1ncnc2c1ncn2CCOCP(=O)(O)O` [hydrophilic parent compound], the Oral bioavailability [6] is listed as 12%.
